Assay: Phase (ii) testing: UV irradiation of drug with photoinitiator (radical generation), drug recovery by HPLC
Type: physicochemical
Conditions: sensitive = degrades more than 5% with radical generation at 12 J/cm^2
Source text: As used herein, the term sensitive pharmaceutical compounds is to be interpreted as compounds that degrade for more than 5% in an environment with radical generation at 12 J/cm^2 irradiation. More in particular, the pharmaceutical can be sensitive during polymerisation that can be initiated with UV or visible light (200-700 nm) or with electron beam or gamma radiation, and without or up to 10% radical generating species (initiator) present. If an initiator is present, it is preferably about 1-10 wt % of a photoinitiator. In addition to photoinitiators, the system may comprise also a thermal initiator (for example peroxide and/or redox initiators). Preferably a radiation sensitive (photo)initiator is used, for example a Norrish Type I or Type II initiator. It is possible to work in the absence of these radical generating species where electron beam or gamma radiation is used or in the case where unsaturated compounds (one compound whose double bond is electron rich and another compound whose double bond is electron poor) react with each other via a donor-acceptor complex to form a polymer.
Potential degradation can be measured by dissolving 100 ppm (0.1 g/l) pharmaceutical compound in a suitable solvent in a quartz, glass or HPLC vessel. One series of vessels is used as such. In a second series of vessels, the one or more initiators, preferably those used in the polymerization mixture, are added in the same amount as the pharmaceutical compound. Next, the vessels are subjected to irradiation at 2 and 12 J/cm^2. As an example, UV radiation can be performed with a lab UV source Bluepoint 2, equipped with a D-bulb D65 and directed onto the sample by a UV light guide. The output from the guide is 200 mW/cm^2 (200 mJ/cm^2 per second) as measured with a Solascope 1 UV spectrometer. A dose of 2 and 12 J/cm^2 was achieved by irradiating 10 and 60 seconds, respectively. The choice of irradiation system could be governed by the applications or processing considerations that typically influence hardware use in a laboratory, hospital or manufacturing environment. […]
The recovery could be analysed by HPLC. […] UV spectra of the drugs before and after UV irradiation (at both 2 and 12 J/cm^2) had identical shapes, meaning that the HPLC method could be used to quantitatively measure changes in drug concentrations. Any degradation would be calculated as: minus the percentage of recovered API.
UV irradiation of drug-containing solutions (see below) was performed with a lab UV source Dr. Hoenle Bluepoint 2, equipped with a D-bulb, directed onto the (open) HPLC vials (2 ml) by a UV light guide (200 mW/cm^2; 200 mJ/cm^2 per second as measured with Solascope 1 UV emission spectrometer). […]

| Compound | radical sensitivity in the current testing method |
| --- | --- |
| COc1cc2nc(N3CCN(C(=O)C4CCCO4)CC3)nc(N)c2cc1OC (stereo not shown) [Terazosin ®, Terazosin] | radical sensitive |
| O=C(N[C@H](CO)[C@H](O)c1ccc([N+](=O)[O-])cc1)C(Cl)Cl [Chloroamphenicol] | radical sensitive |
| CCCCc1oc2ccccc2c1C(=O)c1cc(I)c(OCCN(CC)CC)c(I)c1 [Amiodarone ®, Amiodarone] | radical sensitive |
| COc1cc2nc(N3CCN(C(=O)c4ccco4)CC3)nc(N)c2cc1OC [Prazosin ®, Prazosin] | radical sensitive |

Source: patent publication US20100068252A1, “METHOD FOR PREPARING POLYMERIC MATRICES BY RADIATION IN THE PRESENCE OF SENSITIVE PHARMACEUTICAL COMPOUNDS” (DSM IP ASSETS B.V., priority 2006, published 2010)
